Source: patent US11566007B2, “Ras inhibitors” (Revolution Medicines, Inc., priority 2019, dated 2023)
pEC50, pIC50: −log10 of the molar value. Read-outs that look alike come from different tables or passages of the source.

Tests used:
NCI-H358 (K-Ras G12C) = assay: CellTiter-Glo cell viability assay, NCI-H358; type: cell-based, human; details: Homo sapiens, NCI-H358, 120 h, class symbols; for pIC50: NCI-H358, 5-day treatment, read-out: Additional H358 Cell Viability assay data (K-Ras G12C, IC50)
How it was run: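 Viability of K-Ras mutant lines is measured by ATP luminescence after five days of compound treatment. Percent of DMSO control is calculated and dose-response data are fitted with a four-parameter logistic equation.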

[1] = system: NCI-H358 cells (K-Ras G12C); assay: Potency assay: pERK in NCI-H358 cells; type: cell-based, human; details: Homo sapiens, NCI-H358; H358 KRAS G12C; read-out: pERK EC50
How it was run: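 4 h cpd, 37 °C; 10-pt 3-fold series, 10 mM DMSO top stock, duplicates. Readout pERK: AlphaLISA SureFire Ultra or In-Cell Western (IR-800CW secondary, DRAQ5 DNA stain). IC50, 4-PL fit vs log conc.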

Row | pIC50 (NCI-H358 (K-Ras G12C)) | pEC50 [1] | SMILES | IC50 (NCI-H358 (K-Ras G12C); read-out: Additional H358 Cell Viability assay data (K-Ras G12C, IC50, uM), NCI-H358, 5-day treatment)
1 | 6.00 to 7.00 | > 5.30 | C=CC(=O)N1CC[C@H](C(=O)N(C)[C@H](C(=O)N[C@H]2Cc3cc(O)cc(c3)-c3ccc4c(c3)c(c([C@@H]3CC=CN=C3COC)n4CC)CC(C)(C)COC(=O)[C@@H]3CCCN(N3)C2=O)C(C)C)C1 [Example A65] | 
2 | 6.00 to 7.00 | > 5.30 | C=CC(=O)N1CC[C@@]2(CCN([C@H](C(=O)N[C@H]3Cc4cc(O)cc(c4)-c4ccc5c(c4)c(c(-c4ccccc4CCOC)n5CC)CC(C)(C)COC(=O)[C@@H]4CCCN(N4)C3=O)C(C)C)C2=O)C1 [Example A68] | 
3 | 7.00 to 8.00 | > 5.30 | C=CS(=O)(=O)N1CC[C@H](C(=O)N(C)[C@H](C(=O)N[C@H]2Cc3cc(O)cc(c3)-c3ccc4c(c3)c(c(-c3cccnc3COC)n4CC)CC(C)(C)COC(=O)[C@@H]3CCCN(N3)C2=O)C(C)C)C1 [Example A69] | 
4 | 6.00 to 7.00 | > 5.30 | CCn1c(-c2cccnc2COC)c2c3cc(ccc31)-c1cc(O)cc(c1)C[C@H](NC(=O)[C@H](C(C)C)N(C)C(=O)C1CN(C(=O)/C=C/CN(C)C)C1)C(=O)N1CCC[C@H](N1)C(=O)OCC(C)(C)C2 [Example A71, (2S)-2-(1-{1-[(2E)-4-(dimethylamino)but-2-enoyl]azetidin-3-yl}-N-methylformamido)-N-[(8S,14S)-22-ethyl-4-hydroxy-21-[2-(methoxymethyl)pyridin-3-yl]-18,18-dimethyl-9,15-dioxo-16-oxa-10,22,28-triazapentacyclo[18.5.2.1^2,^6.1^10,^14.0^23,^27]nonacosa-1(26),2,4,6(29),20,23(27),24-heptaen-8-yl]-3-methylbutanamide] | 
5 | 7.00 to 8.00 | > 5.30 | C=CC(=O)N1CC[C@H](C(=O)N(C)[C@H](C(=O)N[C@H]2Cc3cc(O)cc(c3)-c3ccc4c(c3)c(c(-c3cncc(CN(C)C)c3)n4CC)CC(C)(C)COC(=O)[C@@H]3CCCN(N3)C2=O)C(C)C)C1 [Example A73] | 
6 | 7.00 to 8.00 | > 5.30 | C=CC(=O)N1CC[C@H](C(=O)N(C)[C@H](C(=O)N[C@H]2Cc3cc(O)cc(c3)-c3ccc4c(c3)c(c(-c3cnccc3C)n4CC)CC(C)(C)COC(=O)[C@@H]3CCCN(N3)C2=O)C(C)C)C1 [Example A77] | 
7 | 6.00 to 7.00 | > 5.30 | C=CC(=O)N1CC[C@H](C(=O)N(C)[C@H](C(=O)N[C@H]2Cc3cc(O)cc(c3)-c3ccc4c(c3)c(c(-c3c(CCOC)cccc3OC)n4CC)CC(C)(C)COC(=O)[C@@H]3CCCN(N3)C2=O)C(C)C)C1 [Example A80] | 
8 | 7.00 to 8.00 | > 5.30 | C=CC(=O)N1CC[C@H](C(=O)N(C)[C@H](C(=O)N[C@H]2Cc3cc(O)cc(c3)-c3ccc4c(c3)c(c(-c3cc(F)cnc3COC)n4CC)CC(C)(C)COC(=O)[C@@H]3CCCN(N3)C2=O)C(C)C)C1 [Example A82] | 
9 | 7.00 to 8.00 | > 5.30 | C=CC(=O)N1CC[C@H](C(=O)N(C)[C@H](C(=O)N[C@H]2Cc3cc(O)cc(c3)-c3ccc4c(c3)c(c(-c3cncc(COC)c3)n4CC)CC(C)(C)COC(=O)[C@@H]3CCCN(N3)C2=O)C(C)C)C1 [Example A83] | 
10 | 6.00 to 7.00 | > 5.30 | C=CC(=O)N1CC[C@H](C(=O)N(C)[C@H](C(=O)N[C@H]2Cc3cc(O)cc(c3)-c3ccc4c(c3)c(c(-c3ncccc3COC)n4CC)CC(C)(C)COC(=O)[C@@H]3CCCN(N3)C2=O)C(C)C)C1 [Example A84] | 
11 | 6.00 to 7.00 | > 5.30 | C=CC(=O)N1CC[C@H](C(=O)N(C)[C@H](C(=O)N[C@H]2Cc3cc(O)cc(c3)-c3ccc4c(c3)c(c(-c3nccnc3COC)n4CC)CC(C)(C)COC(=O)[C@@H]3CCCN(N3)C2=O)C(C)C)C1 [Example A85] | 
12 | 7.00 to 8.00 | > 5.30 | C=CC(=O)N1CC[C@H](C(=O)N(C)[C@H](C(=O)N[C@H]2Cc3cc(O)cc(c3)-c3ccc4c(c3)c(c(-c3ccncc3)n4C(C)(C)C#N)CC(C)(C)COC(=O)[C@@H]3CCCN(N3)C2=O)C(C)C)C1 [Example A86] | 
13 | 7.00 to 8.00 | > 5.30 | CCn1c(-c2cnccc2COC)c2c3cc(ccc31)-c1cc(O)cc(c1)C[C@H](NC(=O)[C@H](C(C)C)N(C)C(=O)[C@H]1CCN(C(=O)/C=C/CN(C)C)C1)C(=O)N1CCC[C@H](N1)C(=O)OCC(C)(C)C2 [Example A87] | 
14 | 7.00 to 8.00 | > 5.30 | C=CC(=O)N1CC[C@H](C(=O)N(C)[C@H](C(=O)N[C@H]2Cc3cc(O)cc(c3)-c3ccc4c(c3)c(c(-c3ccc(N5CCN(C)CC5)nc3)n4CC)CC(C)(C)COC(=O)[C@@H]3CCCN(N3)C2=O)C(C)C)C1 [Example A89, (2S)-N-[(8S,14S)-22-ethyl-4-hydroxy-18,18-dimethyl-21-[6-(4-methylpiperazin-1-yl)pyridin-3-yl]-9,15-dioxo-16-oxa-10,22,28-triazapentacyclo[18.5.2.1^2,^6.1^10,^14.0^23,^27]nonacosa-1(26),2,4,6(29),20,23(27),24-heptaen-8-yl]-3-methyl-2-{N-methyl-1-[(3S)-1-(prop-2-enoyl)pyrrolidin-3-yl]formamido}butanamide] | 
15 | 6.00 to 7.00 | > 5.30 | C=CC(=O)N1CC[C@H](C(=O)N(C)[C@H](C(=O)N[C@H]2Cc3cc(O)cc(c3)-c3ccc4c(c3)c(c(-c3cccnc3CN(C)C)n4CC)CC(C)(C)COC(=O)[C@@H]3CCCN(N3)C2=O)C(C)C)C1 [Example A92] | 
16 | 7.00 to 8.00 | > 5.30 | C=CC(=O)N1CC[C@H](C(=O)N(C)[C@H](C(=O)N[C@H]2Cc3cc(O)cc(c3)-c3ccc4c(c3)c(c(-c3cccnc3COC)n4CC#N)CC(C)(C)COC(=O)[C@@H]3CCCN(N3)C2=O)C(C)C)C1 [Example A93] | 
17 | 7.00 to 8.00 | > 5.30 | C=CC(=O)N1CC[C@H](C(=O)N(C)[C@H](C(=O)N[C@H]2Cc3nc(cs3)-c3ccc4c(c3)c(c(-c3cccnc3COC)n4CC)CC(C)(C)COC(=O)[C@@H]3CCCN(N3)C2=O)C(C)C)C1 [Example A94] | 

Further lines, the compound ahead of its results:

Row | SMILES | pIC50 (NCI-H358 (K-Ras G12C)) | pEC50 [1] | IC50 (NCI-H358 (K-Ras G12C); read-out: Additional H358 Cell Viability assay data (K-Ras G12C, IC50, uM), NCI-H358, 5-day treatment)
18 | C=CC(=O)N1CC[C@H](C(=O)N(C)[C@H](C(=O)N[C@H]2Cc3cc(O)cc(c3)-c3ccc4c(c3)c(c(C3=C(COC)COCC3)n4CC)CC(C)(C)COC(=O)[C@@H]3CCCN(N3)C2=O)C(C)C)C1 [Example A58] | 7.00 to 8.00 | > 5.30 | 
19 | C=CC(=O)N1CC[C@H](C(=O)N(C)[C@H](C(=O)N[C@H]2Cc3cc(OC(C)=O)cc(c3)-c3ccc4c(c3)c(c(-c3ccccc3CN(C)C)n4CC)CC(C)(C)COC(=O)[C@@H]3CCCN(N3)C2=O)C(C)C)C1 [Example A59] |  | > 5.30 | 0.1 to 1 µM
20 | C=CC(=O)N1CC[C@H](C(=O)N(C)[C@H](C(=O)N[C@H]2Cc3cc(O)cc(c3)-c3ccc4c(c3)c(c(-c3cccnc3N3CC(OC)C3)n4CC)CC(C)(C)COC(=O)[C@@H]3CCCN(N3)C2=O)C(C)C)C1 [Example A60] | 7.00 to 8.00 | > 5.30 | 
21 | C=CC(=O)N1CC[C@H](C(=O)N(C)[C@H](C(=O)N[C@H]2Cc3cc(O)cc(c3)-c3ccc4c(c3)c(c(-c3cncnc3)n4CC)CC(C)(C)COC(=O)[C@@H]3CCCN(N3)C2=O)C(C)C)C1 [Example A61] | 7.00 to 8.00 | > 5.30 | 
22 | C=CC(=O)N1CC[C@H](C(=O)N(C)[C@H](C(=O)N[C@H]2Cc3cc(O)cc(c3)-c3ccc4c(c3)c(c(-c3cncc(C#N)c3)n4CC)CC(C)(C)COC(=O)[C@@H]3CCCN(N3)C2=O)C(C)C)C1 [Example A62] | 7.00 to 8.00 | > 5.30 | 
23 | C=CC(=O)N1CC[C@@]2(CCCN([C@H](C(=O)N[C@H]3Cc4cc(O)cc(c4)-c4ccc5c(c4)c(c(-c4ccccc4CCOC)n5CC)CC(C)(C)COC(=O)[C@@H]4CCCN(N4)C3=O)C(C)C)C2=O)C1 [Example A63] | 6.00 to 7.00 | > 5.30 | 
24 | C=CC(=O)N1CC[C@H](C(=O)N(C)[C@H](C(=O)N[C@H]2Cc3cc(O)cc(c3)-c3ccc4c(c3)c(c(C3=C(COC)CCCC3)n4CC)CC(C)(C)COC(=O)[C@@H]3CCCN(N3)C2=O)C(C)C)C1 [Example A64] | 7.00 to 8.00 | > 5.30 | 
25 | C=CC(=O)N1CC[C@H](C(=O)N(C)[C@H](C(=O)N[C@H]2Cc3cc(O)cc(c3)-c3ccc4c(c3)c(c(-c3cccnc3COC)n4C)CC(C)(C)COC(=O)[C@@H]3CCCN(N3)C2=O)C(C)C)C1 [Example A66] | 7.00 to 8.00 | > 5.30 | 
26 | CCn1c(-c2cccnc2COC)c2c3cc(ccc31)-c1cc(O)cc(c1)C[C@H](NC(=O)[C@H](C(C)C)N(C)C(=O)c1ccc(NC(=O)/C=C/CN(C)C)cn1)C(=O)N1CCC[C@H](N1)C(=O)OCC(C)(C)C2 [Example A67, (2E)-4-(dimethylamino)-N-(6-{[(1S)-1-{[(8S,14S)-22-ethyl-4-hydroxy-21-[2-(methoxymethyl)pyridin-3-yl]-18,18-dimethyl-9,15-dioxo-16-oxa-10,22,28-triazapentacyclo[18.5.2.1^2,^6.1^10,^14.0^23,^27]nonacosa-1(26),2,4,6(29),20,23(27),24-heptaen-8-yl]carbamoyl}-2-methylpropyl](methyl)carbamoyl}pyridin-3-yl)but-2-enamide] | 6.00 to 7.00 | > 5.30 | 
27 | C=CC(=O)N1CC(C(=O)N(C)[C@H](C(=O)N[C@H]2Cc3cc(O)cc(c3)-c3ccc4c(c3)c(c(-c3cccnc3COC)n4CC)CC(C)(C)COC(=O)[C@@H]3CCCN(N3)C2=O)C(C)C)C1 [Example A70] | 7.00 to 8.00 | > 5.30 | 
28 | CCn1c(-c2ccccc2COC)c2c3cc(ccc31)-c1cc(O)cc(c1)C[C@H](NC(=O)[C@H](C(C)C)N(C)C(=O)[C@H]1CCN(C(=O)/C=C/CN(C)C)C1)C(=O)N1CCC[C@H](N1)C(=O)OCC(C)(C)C2 [Example A79] | 7.00 to 8.00 | > 5.30 | 
29 | C=CC(=O)N1CC[C@H](C(=O)N(C)[C@H](C(=O)N[C@H]2Cc3cc(O)cc(c3)-c3ccc4c(c3)c(c(-c3cnccc3COC)n4CC)CC(C)(C)COC(=O)[C@@H]3CCCN(N3)C2=O)C(C)C)C1 [Example A91] | > 8.00 | > 5.30 | 
